Experiment [1] concerns the target T1, PIP4K2A (full length protein, SignalChem) (Homo sapiens, UniProt P48426).
T1 construct: 4 nM PIP4K2A (full length protein, SignalChem); purchased SignalChem
T1 sequence (P48426 1-406): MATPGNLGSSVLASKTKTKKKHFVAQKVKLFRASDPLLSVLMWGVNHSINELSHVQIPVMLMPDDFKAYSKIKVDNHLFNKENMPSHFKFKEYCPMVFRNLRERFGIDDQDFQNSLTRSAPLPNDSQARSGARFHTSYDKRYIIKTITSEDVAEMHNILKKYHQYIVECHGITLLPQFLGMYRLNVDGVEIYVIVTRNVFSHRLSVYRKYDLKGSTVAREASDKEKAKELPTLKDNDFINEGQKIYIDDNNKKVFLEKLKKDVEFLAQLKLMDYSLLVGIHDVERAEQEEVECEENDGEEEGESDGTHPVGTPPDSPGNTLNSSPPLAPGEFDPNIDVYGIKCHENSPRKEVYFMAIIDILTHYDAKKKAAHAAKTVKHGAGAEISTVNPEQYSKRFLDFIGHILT
Put plainly: Kinase Assay PIP4K2 A (Sprint); ADP-Glo biochemical assay. The conditions noted are these: Table 2; compounds listed under IC50 range headings. An outline of the steps:
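Compounds (10-point, 3-fold dilutions) were pre-incubated 15 min at RT with an enzyme/substrate mix of 4 nM full-length PIP4K2A and 100 μM PI(5)P diC8 in 20 mM MOPS pH 7.2, 25 mM MgCl2, 0.005% Tween 20. A 60 μM ATP solution was added, reaction 1 h RT; ADP read by ADP-Glo luminescence, IC50 fitted from % inhibition vs DMSO.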
(In ADP-Glo the light output rises with the ADP produced.)

A further experiment addresses T2, GST tagged PIP4KtypeIIB (Homo sapiens, UniProt P78356).
T2 construct: made in house; host or cells: E. coli
T2 sequence (P78356 1-416): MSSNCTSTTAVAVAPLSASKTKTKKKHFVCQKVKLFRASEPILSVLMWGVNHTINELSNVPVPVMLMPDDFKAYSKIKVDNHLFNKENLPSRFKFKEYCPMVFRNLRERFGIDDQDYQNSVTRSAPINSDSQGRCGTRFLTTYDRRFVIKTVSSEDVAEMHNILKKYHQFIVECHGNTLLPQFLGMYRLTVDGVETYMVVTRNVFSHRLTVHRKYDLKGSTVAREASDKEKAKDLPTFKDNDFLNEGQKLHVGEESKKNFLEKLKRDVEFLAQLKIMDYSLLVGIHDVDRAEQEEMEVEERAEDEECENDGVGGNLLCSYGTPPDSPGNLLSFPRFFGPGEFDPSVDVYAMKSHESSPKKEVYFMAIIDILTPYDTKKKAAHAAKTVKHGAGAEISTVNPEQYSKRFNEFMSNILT
Nature of the experiment: Trans-FI P kinase assay PIP4K2B (PIP4KtypeIIB inhibition assay). The class given is biochemical. The conditions noted are these: Table 4; compounds listed under IC50 range headings; 100 uM GTP, 5 nM PIP4KIIB; read-out: Trans-FI P kinase assays: PIP4K2B IC50. The source says:
GST tagged PIP4KtypeIIA and B enzymes were overexpressed in E. Coli and purified to >80% homogeneity. Phosphatidyl inositol-5-phosphate (PI5P, Cat. #850152, Avanti Polar Lipids Inc.) was used as the lipid substrate and phosphatidyl ethanolamine (DOPE 18:1, Cat. #850725, Avanti Polar Lipids Inc.) was used as the carrier lipid for assays. Ultrapure ATP and GTP was purchased from Bellbrooke Labs. ADP Glo reagents were obtained from Promega. Transcreener FI reagent was obtained from Bellbrooke labs.
1. HEPES buffer mix: 200 mM HEPES pH 7.4, 50 mM MgCl2, 0.05% v/v triton×100
2. HNE buffer: 20 mM HEPES, pH 7.4, 100 mM NaCl, 0.5 mM EGTA
3. H:E buffer: 30 mM HEPES, pH 7.4, 1 mM EGTA
GST-tagged PIP4KtypeIIB (3.4 uL, 2.77 mg/mL) was diluted to 5 mL using HNE buffer to yield 5× enzyme stock (25 nM)
Lipid Preparation: In a 10 mL pyrex glass vial, lug of PI5P and lug of DOPE were suspended in 2.5 mL of HEPES buffer mix and 2.5 mL of H:E buffer. The contents were mixed and sonicated for 3 min to yield a translucent lipid stock.
Compound Preparation: Compounds were stored as 5 mM stocks in neat DMSO as room temperature in glass vials. 5 mM stocks were diluted to 2 mM and then serially diluted (3×) in neat DMSO in 96 well polypropylene plates. From the serially diluted stocks, 3 uL was delivered into 250 uL of 25% DMSO (in water) to generate 5× compound stocks. Typically, the highest compound conc. was 24 uM.
The assay volume was kept at 25 uL. To each well of the reaction plate, 10 uL of lipid stock (1:1 ratio PI5P:DOPE) was delivered. This was followed by the addition of 5 uL of compound in 25% DMSO. Then, to each well, 5 uL of 25 nM (5×) typeIIB enzyme was delivered. The contents were mixed well and incubated for 1 h at 27 C. After 1 h, reaction was initiated by adding 5 uL of 500 uM GTP and the contents were mixed well with a multi-channel pipetteman. The final concentration of the reagents are as follows: 50 mM HEPES, pH 7.3, 10 mM MgCl2, 20 mM NaCl, 0.01% v/v triton-X100, 5% DMSO, 100 uM GTP, 80 uM (2 ug) PI5P, 2 ug DOPE, and 5 nM PIP4KIIB Typically, the highest conc. of compounds was 4.8 uM and the lowest conc. was 0.
After 2 h, the reaction was quenched by adding 25 uL of transcreener FI reagent. The contents were incubated at RT for 1 h and the Fluorescence (Ex: 584 Em: 623) was read using Molecular Devices Paradigm plate reader. […] The blanks were averaged and subtracted from all other wells. Using a calibration curve, RFU was converted to uM GDP (product). IC50 was calculated by plotting the residual activity (expressed as % No inhibitor control) vs. log [Inh. conc.] Table 2 represents PI5P4K activity of compounds (Example No.) of the invention arranged in accordance with the inhibition of PIP4K2 A kinase assay.

Drawing on patent US11919902B2, “Aryl-bipyridine amine derivatives as phosphatidylinositol phosphate kinase inhibitors” (HiberCell, Inc., priority 2017, dated 2024), this text covers IC50 for 15 compounds.

Each structure is given as a SMILES string.

As to `CC(C)n1cnnc1-c1ccc(-c2cc(-c3ccnc4oc(C(=O)NCC5CC5)cc34)cnc2N)cc1` [Example 392, 4-(6-amino-5-(4-(4-isopropyl-4H-1,2,4-triazol-3-yl)phenyl)pyridin-3-yl)-N-(cyclopropylmethyl)furo[2,3-b]pyridine-2-carboxamide], the IC50 – broadly, the concentration that inhibits the measured activity by half – is 0.1 to 1 µM in experiment [1] and 0.001 to 0.01 µM at GST tagged PIP4KtypeIIB.

For `O=C(NCc1cccc2c1COB2O)c1cc2c(-c3cncc(-c4ccc(N5CCCC5=O)cc4)c3)ccnc2[nH]1` [Example 301, N-((1-hydroxy-1,3-dihydrobenzo[c][1,2]oxaborol-4-yl)methyl)-4-(5-(4-(2-oxopyrrolidin-1-yl)phenyl)pyridin-3-yl)-1H-pyrrolo[2,3-b]pyridine-2-carboxamide], the 50% inhibitory concentration (IC50) was in the range of 0.005 to 0.1 µM in experiment [1] and 0.01 to 0.1 µM on GST tagged PIP4KtypeIIB.

Regarding `CC(C)n1cnnc1-c1ccc(-c2cncc(-c3ccnc4[nH]c(C(=O)NCCOCCOCCOCCNC(=O)COc5cccc6c5C(=O)N(C5CCC(=O)NC5=O)C6=O)cc34)c2)cc1` (stereo not drawn) [Example 389, N-(1-((2-(2,6-dioxopiperidin-3-yl)-1,3-dioxoisoindolin-4-yl)oxy)-2-oxo-6,9,12-trioxa-3-azatetradecan-14-yl)-4-(5-(4-(4-isopropyl-4H-1,2,4-triazol-3-yl)phenyl)pyridin-3-yl)-1H-pyrrolo[2,3-b]pyridine-2-carboxamide], the results for the half-inhibitory concentration (IC50) (in experiment [1]; at GST tagged PIP4KtypeIIB) were under 5 µM and 0.1 to 1 µM, respectively.

For the compound `CN1CCn2c(cc3c(-c4cncc(-c5ccc(-c6nncn6C6CC(F)(F)C6)cc5)c4)ccnc32)C1=O` [Example 394, 4-(5-(4-(4-(3,3-difluorocyclobutyl)-4H-1,2,4-triazol-3-yl)phenyl)pyridin-3-yl)-7-methyl-8,9-dihydropyrido[3′,2′:4,5]pyrrolo[1,2-a]pyrazin-6(7H)-one], the values for the IC50 (in experiment [1]; on GST tagged PIP4KtypeIIB) were 2.5 to 5 µM and 0.1 to 1 µM, respectively.

In the case of `O=C1CCCN1c1ccc(-c2cncc(-c3cnc4ncc(-c5cccnc5)n4c3)c2)cc1` [Example 344, 1-(4-(5-(3-(pyridin-3-yl)imidazo[1,2-a]pyrimidin-6-yl)pyridin-3-yl)phenyl)pyrrolidin-2-one], the figures for the IC50 (in experiment [1]; at GST tagged PIP4KtypeIIB) were 2.5 to 5 µM and over 5 µM, respectively.

`CNC(=O)c1cc2c(-c3cnc(N)c(-c4ccc(-c5nncn5CC(C)C)cc4)c3)ccnc2o1` [Example 366, 4-(6-amino-5-(4-(4-isobutyl-4H-1,2,4-triazol-3-yl)phenyl)pyridin-3-yl)-N-methylfuro[2,3-b]pyridine-2-carboxamide]: the IC50 in experiment [1] fell in the range of 0.005 to 0.1 µM; at GST tagged PIP4KtypeIIB, 0.01 to 0.1 µM.

With `O=C(Nc1cccnc1)c1cc2c(-c3cncc(-c4ccc(N5CCCC5=O)cc4)c3)ccnc2[nH]1` [Example 328, 4-(5-(4-(2-oxopyrrolidin-1-yl)phenyl)pyridin-3-yl)-N-(pyridin-3-yl)-1H-pyrrolo[2,3-b]pyridine-2-carboxamide], the half-inhibitory concentration (IC50) lay within 2.5 to 5 µM in experiment [1] and 0.01 to 0.1 µM at GST tagged PIP4KtypeIIB.

For the compound `COC(=O)c1cc2c(-c3cncc(-c4ccc(-c5nncn5C(C)C)cc4)c3)ccnc2[nH]1` [Example 211, methyl 4-(5-(4-(4-isopropyl-4H-1,2,4-triazol-3-yl)phenyl)pyridin-3-yl)-1H-pyrrolo[2,3-b]pyridine-2-carboxylate], the IC50 in experiment [1] was 0.005 to 0.1 µM; on GST tagged PIP4KtypeIIB, 0.001 to 0.01 µM.

`CC(C)n1nnnc1-c1ccc(-c2cncc(-c3ccnc4c3cc3n4CCN(C)C3=O)c2)cc1` [Example 387, 4-(5-(4-(1-isopropyl-1H-tetrazol-5-yl)phenyl)pyridin-3-yl)-7-methyl-8,9-dihydropyrido[3′,2′:4,5]pyrrolo[1,2-a]pyrazin-6(7H)-one]: the values for the IC50 (in experiment [1]; on GST tagged PIP4KtypeIIB) were 0.1 to 1 µM and 0.001 to 0.01 µM, respectively.

For `CN1CCn2c(cc3c(-c4cncc(-c5ccc(C(=O)N6CC(C)(C)C6)cc5)c4)ccnc32)C1=O` [Example 381, 4-(5-(4-(3,3-dimethylazetidine-1-carbonyl)phenyl)pyridin-3-yl)-7-methyl-8,9-dihydropyrido[3′,2′:4,5]pyrrolo[1,2-a]pyrazin-6(7H)-one], the concentration for half-maximal inhibition (IC50) (in experiment [1]; at GST tagged PIP4KtypeIIB) was 0.1 to 1 µM each time.

Regarding `CC(C)c1conc1-c1ccc(-c2cncc(-c3ccnc4c3cc3n4CCN(C)C3=O)c2)cc1` [Example 375, 4-(5-(4-(4-isopropylisoxazol-3-yl)phenyl)pyridin-3-yl)-7-methyl-8,9-dihydropyrido[3′,2′:4,5]pyrrolo[1,2-a]pyrazin-6(7H)-one], the IC50 in experiment [1] fell in the range of 0.1 to 1 µM; at GST tagged PIP4KtypeIIB it was 0.01 to 0.1 µM.

Turning to `CN1CCn2c(cc3c(-c4cncc(-c5ccc(N6CCC(C)(C)CC6=O)cc5)c4)ccnc32)C1=O` [Example 342, 4-(5-(4-(4,4-dimethyl-2-oxopiperidin-1-yl)phenyl)pyridin-3-yl)-7-methyl-8,9-dihydropyrido[3′,2′:4,5]pyrrolo[1,2-a]pyrazin-6(7H)-one], the IC50 in experiment [1] was in the range of 1 to 2.5 µM; on GST tagged PIP4KtypeIIB, 0.1 to 1 µM.

As for `CN(C)C(=O)c1ccc(-c2cc(-c3cnc4c(c3)c(-c3cccnc3)cn4C)cnc2N)nc1` [Example 121, 2′-amino-N,N-dimethyl-5′-(1-methyl-3-(pyridin-3-yl)-1H-pyrrolo[2,3-b]pyridin-5-yl)-[2,3′-bipyridine]-5-carboxamide], the IC50 (in experiment [1]; at GST tagged PIP4KtypeIIB) was 0.1 to 1 µM in each case.

For the compound `O=C(NCc1nc2ccccc2[nH]1)c1cc2c(-c3cncc(-c4ccc(N5CCCC5=O)cc4)c3)ccnc2[nH]1` [Example 322, N-((1H-benzo[d]imidazol-2-yl)methyl)-4-(5-(4-(2-oxopyrrolidin-1-yl)phenyl)pyridin-3-yl)-1H-pyrrolo[2,3-b]pyridine-2-carboxamide], the figures for the IC50 (in experiment [1]; at GST tagged PIP4KtypeIIB) were 1 to 2.5 µM and 0.01 to 0.1 µM, respectively.

Take `CC[C@H](C)n1cnnc1-c1ccc(-c2cncc(-c3ccnc4c3cc3n4CCN(C)C3=O)c2)cc1` [Example 360, (S)-4-(5-(4-(4-(sec-butyl)-4H-1,2,4-triazol-3-yl)phenyl)pyridin-3-yl)-7-methyl-8,9-dihydropyrido[3′,2′:4,5]pyrrolo[1,2-a]pyrazin-6(7H)-one]: the IC50 in experiment [1] fell in the range of 0.1 to 1 µM; at GST tagged PIP4KtypeIIB, 0.01 to 0.1 µM.
